Columns and labels:
[1] = solubility of avermectins/ivermectin in N-methylpyrrolidone and 2-pyrrolidone formulations; water tolerance (clear solution becomes milky or cloudy as excess water is added); type: physicochemical
Method: Both N-methylpyrrolidone and 2-pyrrolidone have been approved as a safe solvent for injection, but only for oxytetracycline; which is chemically unlike ivermectin. […] Ivermectin can be present in the formulation from 0.1% to 40% (w/v). N-methylpyrrolidone (also known as M-pyrole) can be present from 5% to essentially 100% (v/v) of the formulation. The specific gravity of N-methylpyrrolidone is 1.027 at 25° C. relative to water at 4° C. Additional compounds can be included as desired, e.g. propylene glycol up to 95% by volume, water up to 90% by volume and Clorsulon (an antiparasitic agent frequently co-administered with ivermectin) up to 40% by weight. The formulation can contain water up to amounts which limit avermectin solubility. The maximum amount of water which can be included depends upon the amount of avermectin and the presence of co-solvents such as propylene glycol, and presence of detergent, as illustrated in the Examples. The amount of water which can be present is limited only by avermectin solubility. The presence of too much water can be readily detected because the clear solution becomes milky or cloudy as excess water is added. Where N-methylpyrrolidone is the sole solvent, up to 30% by volume of water can be included in a formulation containing 1% (w/v) ivermectin. If less ivermectin is present, the amount of water can be increased somewhat. If 10% (v/v) propylene glycol is a co-solvent with 20% (w/v) N-methylpyrrolidone, 0.5% ivermectin remains soluble in the presence of water up to about 70% by volume. Compositions containing 2-pyrrolidone completely or partially substituted for N-methylpyrrolidone in the exemplified formulations are equivalent in their solubility properties. As noted above, compositions containing N-methylpyrrolidone are preferred.

[2] = cited from earlier work
[3] = pain and tissue reaction at the injection site; type: in vivo; settings: compared with 2-pyrrolidone
[4] = cited from earlier work; remark: listed apart in the source
[5] = system: Rat; settings: cited from earlier work

Compound | water in the presence of which ivermectin remains soluble ([1]; 0.5% ivermectin, 10% (v/v) propylene glycol co-solvent with 20% (w/v) N-methylpyrrolidone) | solubility in 2-pyrrolidone ([1]; 2-pyrrolidone, to permit formulation of therapeutic compositions) | amount of water which can be included (limited by avermectin solubility) ([1]; N-methylpyrrolidone sole solvent, 1% (w/v) ivermectin) | solubility in N-methylpyrrolidone ([1]; N-methylpyrrolidone, to permit formulation of therapeutic compositions) | solubility in 1-butanol ([2]; 1-butanol) | solubility in 2-propanol ([2]; 2-propanol) | solubility in acetone ([2]; acetone) | solubility in methylethylketone ([2]; methylethylketone) | solubility in water ([2]; water, room temperature) | pain at the injection site [3] | tissue reaction [3] | time in which most of the compound is eliminated by the kidneys [4] | LD50 ([5]; Rat, oral) | oral toxicity [5]
22,23-dihydroavermectin B1 [ivermectin] | up to 70 % by volume | sufficiently soluble | up to 30 % by volume | sufficiently soluble | 330 mg/mL | 70 mg/mL | 81 mg/mL | 320 mg/mL | about 0.005 mg per ml | – | – | – | – | –
CN1CCCC1=O [N-methylpyrrolidone] | – | – | – | – | – | – | – | – | – | less pain at the injection site | less tissue reaction | ≤ 24 h | 4200 mg/kg | very low order of oral toxicity
